The text below walks through data of ChEMBL document CHEMBL1135135, “Synthesis and cytotoxicity of 2alpha-amido docetaxel analogues” (Bioorg Med Chem Lett, 2002).

Common to all, as to format: functional, cell-based
Conditions in all cases: Homo sapiens

The subject of test [1] is A549. The experiment in a line: Inhibitory activity against A549 lung cancer cell line.
Test [2] concerns A549. In words: Inhibitory activity against Taxol-resistant A549 lung cancer cell line.
Test [3] deals with KB. The experiment in a line: Inhibitory activity against KB nasopharynx cancer cell line.
Test [4] deals with KB. The experiment in a line: Inhibitory activity against Vincristine-resistant KB nasopharynx cancer cell line.
Test [5] has as its system MCF7. The experiment in a line: Inhibitory activity against Adriamycin-resistant MCF-7 breast cancer cell line.
The test system of test [6] is MCF7. The experiment in a line: Inhibitory activity against MCF-7 breast cancer cell line.

Regarding `CC(=O)O[C@H]1C(=O)[C@@]2(C)C([C@H](NC(=O)c3ccc([N+](=O)[O-])cc3)[C@]3(O)C[C@H](OC(=O)[C@@H](O)[C@@H](NC(=O)OC(C)(C)C)c4ccccc4)C(C)=C1C3(C)C)[C@]1(OC(C)=O)CO[C@@H]1C[C@@H]2O` (some centres undefined), the IC50 was over 100 nM in test [1], over 1000 nM in test [2], over 100 nM in test [3] and over 1000 nM in test [4].

As to `CC(=O)O[C@H]1C(=O)[C@@]2(C)C([C@H](NC(=O)c3ccc(Cl)cc3)[C@]3(O)C[C@H](OC(=O)[C@@H](O)[C@@H](NC(=O)OC(C)(C)C)c4ccccc4)C(C)=C1C3(C)C)[C@@](CO)(OC(C)=O)[C@@H](O)C[C@@H]2O` (some centres undefined), the IC50 in test [1] is over 100 nM; in test [2], over 1000 nM; in test [3] it was over 100 nM; in test [4], over 1000 nM.

In the case of `CC(=O)O[C@H]1C(=O)[C@@]2(C)C([C@H](NC(=O)c3cccc(Cl)c3)[C@]3(O)C[C@H](OC(=O)[C@@H](O)[C@@H](NC(=O)OC(C)(C)C)c4ccccc4)C(C)=C1C3(C)C)[C@@](CO)(OC(C)=O)[C@@H](O)C[C@@H]2O` (some centres undefined), the IC50 in test [1] was over 100 nM; in test [2] it was over 1000 nM; in test [3] it was over 100 nM; in test [4], over 1000 nM.

For `CC(=O)O[C@H]1C(=O)[C@@]2(C)C([C@H](NC(=O)c3ccccc3)[C@]3(O)C[C@H](OC(=O)[C@@H](O)[C@@H](NC(=O)OC(C)(C)C)c4ccccc4)C(C)=C1C3(C)C)[C@@](CO)(OC(C)=O)[C@@H](O)C[C@@H]2O` (some centres undefined), the IC50 is over 100 nM in test [1], over 1000 nM in test [2], over 100 nM in test [3] and over 1000 nM in test [4].

As to `COc1ccc(C(=O)N[C@H]2C3[C@](C)(C(=O)[C@H](OC(C)=O)C4=C(C)[C@@H](OC(=O)[C@@H](O)[C@@H](NC(=O)OC(C)(C)C)c5ccccc5)C[C@]2(O)C4(C)C)[C@@H](O)C[C@H]2OC[C@@]32OC(C)=O)cc1` (some centres undefined), the IC50 was over 100 nM in test [1], over 1000 nM in test [2], over 100 nM in test [3] and over 1000 nM in test [4].

In the case of `CC(=O)O[C@H]1C(=O)[C@@]2(C)C([C@H](NC(=O)c3ccccc3)[C@]3(O)C[C@H](OC(=O)[C@@H](O)[C@@H](NC(=O)OC(C)(C)C)c4ccccc4)C(C)=C1C3(C)C)[C@]1(OC(C)=O)CO[C@@H]1C[C@@H]2O` (some centres undefined), the IC50 came to 250 nM in test [1] and 150 nM in test [3].

As for `CC(=O)O[C@H]1C(=O)[C@@]2(C)C([C@H](NC(=O)OCc3ccccc3)[C@]3(O)C[C@H](OC(=O)[C@@H](O)[C@@H](NC(=O)OC(C)(C)C)c4ccccc4)C(C)=C1C3(C)C)[C@]1(OC(C)=O)CO[C@@H]1C[C@@H]2O` (some centres undefined), the IC50 in test [1] was over 100 nM; in test [2], over 1000 nM; in test [3], over 100 nM; in test [4], over 1000 nM.

For `CC(=O)O[C@H]1C(=O)[C@@]2(C)C([C@H](NC(=O)c3cccc(Cl)c3)[C@]3(O)C[C@H](OC(=O)[C@@H](O)[C@@H](NC(=O)OC(C)(C)C)c4ccccc4)C(C)=C1C3(C)C)[C@]1(OC(C)=O)CO[C@@H]1C[C@@H]2O` (some centres undefined), the IC50 in test [1] was 95 nM; in test [2] it was 1100 nM; in test [3], 78 nM; in test [4], over 1000 nM; in test [5], over 4500 nM; in test [6], 110 nM.

`COc1cccc(C(=O)N[C@H]2C3[C@](C)(C(=O)[C@H](OC(C)=O)C4=C(C)[C@@H](OC(=O)[C@@H](O)[C@@H](NC(=O)OC(C)(C)C)c5ccccc5)C[C@]2(O)C4(C)C)[C@@H](O)C[C@H]2OC[C@@]32OC(C)=O)c1` (some centres undefined): the IC50 in test [1] was 83 nM; in test [2], 1000 nM; in test [3], 74 nM; in test [4], 1100 nM; in test [5], over 4600 nM; in test [6], 73 nM.

For `CC(=O)O[C@@]12CO[C@@H]1C[C@H](O)[C@@]1(C)C(=O)[C@H](O)C3=C(C)[C@@H](OC(=O)[C@H](O)[C@@H](NC(=O)OC(C)(C)C)c4ccccc4)C[C@@](O)([C@@H](OC(=O)c4ccccc4)[C@H]21)C3(C)C` [DOCETAXEL], the half-maximal inhibitory concentration (IC50) was 4.1 nM in test [1]; 98 nM in test [2]; 4.4 nM in test [3]; 200 nM in test [4]; 4200 nM in test [5]; 7.9 nM in test [6].

`CC(=O)O[C@H]1C(=O)[C@@]2(C)[C@H]([C@H](OC(=O)c3ccccc3)[C@]3(O)C[C@H](OC(=O)[C@H](O)[C@@H](NC(=O)c4ccccc4)c4ccccc4)C(C)=C1C3(C)C)[C@]1(OC(C)=O)CO[C@@H]1C[C@@H]2O` [PACLITAXEL]: the IC50 is 12 nM in test [1]; 960 nM in test [2]; 9.1 nM in test [3]; 1700 nM in test [4]; over 6000 nM in test [5]; 5.5 nM in test [6].

In the case of `CC(=O)O[C@H]1C(=O)[C@@]2(C)C([C@H](NC(=O)c3ccc(Cl)cc3)[C@]3(O)C[C@H](OC(=O)[C@@H](O)[C@@H](NC(=O)OC(C)(C)C)c4ccccc4)C(C)=C1C3(C)C)[C@]1(OC(C)=O)CO[C@@H]1C[C@@H]2O` (some centres undefined), the IC50 in test [1] was over 100 nM; in test [2], over 1000 nM; in test [3], over 100 nM; in test [4], over 1000 nM.

As a reminder, the IC50 is the midpoint of a concentration-inhibition curve. Higher therefore signals weaker potency.
